We go through 4 compounds from ChEMBL document CHEMBL6120963, “Discovery of Novel PROTAC SIRT6 Degraders with Potent Efficacy against Hepatocellular Carcinoma” (J Med Chem, 2024).

Active and inactive are the calls of the source. The calls are words filed in the database; no cut-off is given here. Where only a bound is given, the exact number is not on record here.

The target in data set [1] is T1, Protein cereblon/NAD-dependent protein deacylase sirtuin-6 (Homo sapiens, UniProt Q8N6T7+Q96SW2). In words: PROTAC activity at CRBN/SIRT6 in human Huh-7 cells assessed as induction of SIRT6 degradation upto 10 uM incubated for 36 hrs by Western blot analysis relative to control. The class given is cell-based.
Target sequence in this assay (Q8N6T7 2-355 limits assumed): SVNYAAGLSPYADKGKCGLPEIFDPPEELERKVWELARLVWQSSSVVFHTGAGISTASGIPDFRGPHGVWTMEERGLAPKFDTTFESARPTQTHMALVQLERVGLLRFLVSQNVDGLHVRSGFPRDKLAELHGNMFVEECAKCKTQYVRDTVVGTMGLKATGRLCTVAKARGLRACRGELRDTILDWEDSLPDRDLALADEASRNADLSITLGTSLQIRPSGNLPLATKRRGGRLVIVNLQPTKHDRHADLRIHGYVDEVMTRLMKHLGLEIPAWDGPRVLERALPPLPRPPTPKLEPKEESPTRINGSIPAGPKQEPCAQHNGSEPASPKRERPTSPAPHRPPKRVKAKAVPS
Target sequence in this assay (Q96SW2 whole entry partner): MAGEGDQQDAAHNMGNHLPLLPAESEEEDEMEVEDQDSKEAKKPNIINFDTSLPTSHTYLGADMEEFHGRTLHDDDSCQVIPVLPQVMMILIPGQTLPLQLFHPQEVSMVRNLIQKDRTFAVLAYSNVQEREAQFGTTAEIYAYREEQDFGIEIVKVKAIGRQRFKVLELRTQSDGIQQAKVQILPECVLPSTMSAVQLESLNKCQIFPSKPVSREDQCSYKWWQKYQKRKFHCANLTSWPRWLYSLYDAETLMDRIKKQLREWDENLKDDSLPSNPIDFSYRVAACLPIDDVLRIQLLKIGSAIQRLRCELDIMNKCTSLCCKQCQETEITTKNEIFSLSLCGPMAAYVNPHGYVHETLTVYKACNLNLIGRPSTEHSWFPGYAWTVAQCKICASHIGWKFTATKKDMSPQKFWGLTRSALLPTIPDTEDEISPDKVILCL
Data set [2] concerns the target T1, Protein cereblon/NAD-dependent protein deacylase sirtuin-6. In words: PROTAC activity at CRBN/SIRT6 in human SK-HEP1 cells assessed as induction of SIRT6 degradation at 2 uM incubated for 36 hrs by In-Cell ELISA relative to control. The data set is classed as cell-based. In general terms: An ELISA detects its analyte on a solid surface through an enzyme-linked reagent.
Target sequence in this assay (Q8N6T7 2-355 limits assumed): as the sequence (Q8N6T7 2-355 limits assumed) above
Target sequence in this assay (Q96SW2 whole entry partner): as the sequence (Q96SW2 whole entry partner) above

For data set [3] the target is unchanged. The data set can be described thus: PROTAC activity at CRBN/SIRT6 in human SK-HEP1 cells assessed as induction of SIRT6 degradation at 0.02 to 5 uM incubated for 36 hrs by Western blot analysis. The class given is cell-based. As to conditions: dose 0.02-5 µM.
Target sequence in this assay (Q8N6T7 2-355 limits assumed): as the sequence (Q8N6T7 2-355 limits assumed) above
Target sequence in this assay (Q96SW2 whole entry partner): as the sequence (Q96SW2 whole entry partner) above
For data set [4] the target is unchanged. In words: PROTAC activity at CRBN/SIRT6 in human Huh-7 cells assessed as induction of SIRT6 degradation incubated for 36 hrs by Western blot analysis. The class given is cell-based. Background: In western blotting, separated proteins are transferred to a membrane and probed.
For data set [5] the target is unchanged. The data set can be described thus: PROTAC activity at CRBN/SIRT6 in human SK-HEP1 cells assessed as induction of SIRT6 degradation incubated for 36 hrs by Western blot analysis. The class given is cell-based.
The target is the same in data set [6]. The data set can be described thus: PROTAC activity at CRBN/SIRT6 in human SK-HEP1 cells assessed as induction of SIRT6 degradation upto 10 uM incubated for 36 hrs by Western blot analysis relative to control. The class given is cell-based.
Target sequence in this assay (Q8N6T7 2-355 limits assumed): as the sequence (Q8N6T7 2-355 limits assumed) above
Target sequence in this assay (Q96SW2 whole entry partner): as the sequence (Q96SW2 whole entry partner) above
Data set [7] deals with SK-HEP1. In words: Cytotoxicity against human SK-HEP1 cells incubated for 72 hrs by CCK8 assay. The class given is functional, cell-based. As to conditions: SK-HEP1, 72 h. On the technique in general: Tetrazolium assays rely on reduction of a dye to a coloured formazan, in cell work by metabolically active cells.
In data set [8] the target is T1, Protein cereblon/NAD-dependent protein deacylase sirtuin-6. The data set can be described thus: PROTAC activity at CRBN/SIRT6 in human SK-HEP1 cells assessed as induction of SIRT6 degradation at 2 to 3 uM incubated for 36 hrs by Western blot analysis. The data set is classed as cell-based. As to conditions: dose 2-3 µM.
Target sequence in this assay (Q8N6T7 2-355 limits assumed): as the sequence (Q8N6T7 2-355 limits assumed) above
Target sequence in this assay (Q96SW2 whole entry partner): as the sequence (Q96SW2 whole entry partner) above
Data set [9] has the same target. In words: PROTAC activity at CRBN/SIRT6 in human Huh-7 cells assessed as hook effect at 5 uM incubated for 36 hrs by Western blot analysis. The class given is cell-based.
Target sequence in this assay (Q8N6T7 2-355 limits assumed): as the sequence (Q8N6T7 2-355 limits assumed) above
Target sequence in this assay (Q96SW2 whole entry partner): as the sequence (Q96SW2 whole entry partner) above
For data set [10] the target is unchanged. In words: PROTAC activity at CRBN/SIRT6 in human SK-HEP1 cells assessed as induction of SIRT6 degradation at 200 nM incubated for 36 hrs by In-Cell ELISA relative to control. The data set is classed as cell-based.
For data set [11], the system named is SK-HEP1. The data set can be described thus: Antitumor activity against human SK-HEP1 cells xenografted in BALB/c nude mouse at 25 mg/kg treated for 28 to 30 days relative to control. The data set is classed as functional. As to conditions: time 28-30 day.
Data set [12] in a line: Toxicity in BALB/c nude mouse xenografted with human SK-HEP1 cells assessed as histopathological abnormalities in spleen at 25 mg/kg treated for 28 to 30 days by H and E staining based analysis. The class given is organism-based. As to conditions: in vivo, time 28-30 day.
Data set [13] can be described thus: Toxicity in BALB/c nude mouse xenografted with human SK-HEP1 cells assessed as pathological damage in lungs at 25 mg/kg treated for 28 to 30 days by H and E staining based analysis. The data set is classed as organism-based. As to conditions: in vivo, time 28-30 day.
Data set [14] in a line: Toxicity in BALB/c nude mouse xenografted with human SK-HEP1 cells assessed as body weight loss at 25 mg/kg treated for 28 to 30 days. The class given is organism-based. As to conditions: in vivo, time 28-30 day.
Data set [15] is described as follows: Toxicity in BALB/c nude mouse xenografted with human SK-HEP1 cells assessed as histopathological abnormalities in lungs at 25 mg/kg treated for 28 to 30 days by H and E staining based analysis. The data set is classed as organism-based. As to conditions: in vivo, time 28-30 day.
Data set [16] in a line: Toxicity in BALB/c nude mouse xenografted with human SK-HEP1 cells assessed as pathological damage in heart at 25 mg/kg treated for 28 to 30 days by H and E staining based analysis. The class given is organism-based. As to conditions: in vivo, time 28-30 day.
Data set [17] in a line: Toxicity in BALB/c nude mouse xenografted with human SK-HEP1 cells assessed as pathological damage in liver at 25 mg/kg treated for 28 to 30 days by H and E staining based analysis. The class given is organism-based. As to conditions: in vivo, time 28-30 day.
Data set [18] is described as follows: Toxicity in BALB/c nude mouse xenografted with human SK-HEP1 cells assessed as histopathological abnormalities in heart at 25 mg/kg treated for 28 to 30 days by H and E staining based analysis. The data set is classed as organism-based. As to conditions: in vivo, time 28-30 day.
Data set [19] is described as follows: Toxicity in BALB/c nude mouse xenografted with human SK-HEP1 cells assessed as pathological damage in spleen at 25 mg/kg treated for 28 to 30 days by H and E staining based analysis. The class given is organism-based. As to conditions: in vivo, time 28-30 day.
Data set [20] is described as follows: Toxicity in BALB/c nude mouse xenografted with human SK-HEP1 cells assessed as pathological damage in kidney at 25 mg/kg treated for 28 to 30 days by H and E staining based analysis. The class given is organism-based. As to conditions: in vivo, time 28-30 day.
Data set [21] concerns SK-HEP1. In words: Induction of SIRT6 degradation in human SK-HEP1 cells at 0.5 uM incubated for 36 hrs by In-Cell ELISA relative to control. The data set is classed as cell-based.
The subject of data set [22] is SK-HEP1. In words: Induction of SIRT6 degradation in human SK-HEP1 cells at 5 uM incubated for 36 hrs by In-Cell ELISA relative to control. The data set is classed as cell-based.
Data set [23] concerns the target NAD-dependent protein deacylase sirtuin-6 (Homo sapiens) (UniProt Q8N6T7). The data set can be described thus: Inhibition of SIRT6 in human SK-HEP1 cells assessed as increase in H3K9Ac level incubated for 36 hrs by Western blot analysis. The class given is cell-based. As to conditions: dose 1.25-20 µM.
The target in data set [24] is T1, Protein cereblon/NAD-dependent protein deacylase sirtuin-6. The data set can be described thus: PROTAC activity at CRBN/SIRT6 in human SK-HEP1 cells assessed as hook effect upto 5 uM incubated for 36 hrs by Western blot analysis. The data set is classed as cell-based.
Data set [25] has the same target. The data set can be described thus: PROTAC activity at CRBN/SIRT6 in human SK-HEP1 cells assessed as efficiency of SIRT6 degradation at 2 uM incubated for 36 hrs by Western blot analysis relative to control. The class given is cell-based.

Sequence of NAD-dependent protein deacylase sirtuin-6 (Homo sapiens) (Q8N6T7 whole entry): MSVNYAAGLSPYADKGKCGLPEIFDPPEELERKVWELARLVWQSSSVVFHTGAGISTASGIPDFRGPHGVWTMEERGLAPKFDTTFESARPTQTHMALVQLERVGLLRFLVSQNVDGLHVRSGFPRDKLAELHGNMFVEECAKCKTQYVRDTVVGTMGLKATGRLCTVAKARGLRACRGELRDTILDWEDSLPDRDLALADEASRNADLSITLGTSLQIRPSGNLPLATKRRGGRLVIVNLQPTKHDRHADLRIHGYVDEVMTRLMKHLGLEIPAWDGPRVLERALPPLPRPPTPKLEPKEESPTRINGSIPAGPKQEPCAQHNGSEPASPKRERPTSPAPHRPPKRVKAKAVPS

`Nc1cc(N2CCN(CCCC3CCN(c4cc5c(cc4F)C(=O)N(C4CCC(=O)NC4=O)C5=O)CC3)CC2)ccc1[N+](=O)[O-]` (stereo unspecified): the figures for the Emax in data set [1] and in data set [6] were 81.5% and 97.7%, respectively. For the same compound, the Activity in data set [2] was 94.6%; in data set [4] (dose 0.008-5 µM), “Dose-dependent-effect; But Reduced Degradation Efficiency Observed”; in data set [10], 90.3%. The result in data set [3], in [8] and in [9] was Active. For the same compound, the DC50 (in general, the midpoint of the concentration-degradation curve) amounted to 263 nM in data set [4] and 50.4 nM in data set [5]. Further, the IC50 – broadly, the concentration that gives 50% inhibition – with SK-HEP1 [7] worked out at 1640 nM.
`CNC(=O)c1cc(Oc2ccc(NC(=O)Nc3ccc(Cl)c(C(F)(F)F)c3)cc2)ccn1` [SORAFENIB]: in the data set on SK-HEP1 [11], the T/C – broadly, the result in the treated group divided by that in the control group, in per cent – is recorded as 35.4%. Also, the Activity entry is listed as “Non-toxic” in data set [12]; “Non-toxic” in [13]; “Toxic” in [14]; “Non-toxic” in [15]; “Non-toxic” in data set [16]; “Non-toxic” in data set [17]. Besides, the Activity result in data set [18], in data set [19] and in [20] was “Non-toxic” each time.
For the compound `CN1CCN(c2ccc([N+](=O)[O-])c(N)c2)CC1`, the Activity in the data set on SK-HEP1 [21] amounted to 1.8%; in the data set with SK-HEP1 [22], 4.9%. The same compound gave an IC50 in the data set on SK-HEP1 [7] of 4260 nM. Besides, the inhibition entry in data set [23] was “Dose-dependent-effect”.
Take `Nc1cc(N2CCN(CC3CCN(c4ccc5c(c4)C(=O)N(C4CCC(=O)NC4=O)C5=O)CC3)CC2)ccc1[N+](=O)[O-]` (stereo unspecified): the results for the Emax in data set [1] and in data set [6] were 90.6% and 94.8%, respectively. Further, the Activity in data set [2] was 93.6%; in data set [5] (dose 0.02-5 µM) it was “Dose-dependent-effect”; in data set [25], over 95%; in data set [10], 85.9%. Also, the DC50 in data set [4] was 239 nM; in [5], 106 nM. Also, the outcome in data set [24] was inactive. In the data set with SK-HEP1 [7], this compound came in with an IC50 of 1750 nM. In [8], the outcome was Active.
